Values of other authors, collected in patent EP4459286A1, “KIT FOR QUANTITATIVELY DETERMINING TACROLIMUS IN WHOLE BLOOD BY LOW-RESISTANCE LATEX-ENHANCED IMMUNE COMPETITION METHOD, AND USE THEREOF” (SHANGHAI YUNZE BIOTECHNOLOGY CO., LTD, priority 2021, dated 2023).
Where two headings read alike, the source gives them in different places.

Columns and labels:
[1] = rescue therapy, cyclosporine ineffective
[2] = compared with cyclosporine

In the case of `C=CC[C@@H]1/C=C(\C)C[C@H](C)C[C@H](OC)[C@H]2O[C@@](O)(C(=O)C(=O)N3CCCC[C@H]3C(=O)O[C@H](/C(C)=C/[C@@H]3CC[C@@H](O)[C@H](OC)C3)[C@H](C)[C@@H](O)CC1=O)[C@H](C)C[C@@H]2OC` [tacrolimus, Tacrolimus], the success rate ([1]; kidney transplantation patients) is listed as 74%, the success rate ([1]; liver transplantation patients) is listed as 87% and the “effect of preventing rejection in various organ transplants” value [2] is listed as “superior to that of cyclosporine”.
